According to US9834773B2, “Methods and means for metabolic engineering and improved product formation by micro-organisms” (Universiteit Leiden, priority 2006, dated 2017):
“Also recorded” adds a separate entry of the source.

Tests used:
[1] = tested on: S. coelicolor M145 and BAP29 mycelia; test: Sugar uptake assay with N-[14C]acetyl-D-glucosamine into mycelia; format: cell-based, Streptomyces coelicolor; conditions: parent M145, cultures grown in glycerol and inducer (GlcNAc); 20 μM N-[14C]acetyl-D-glucosamine
Source text: FIG. 8. DasR represses genes the N-acetylglucosamine regulon (A) Effect of deletion of dasR on the uptake of GlcNAc. Left, uptake in glycerol-grown cultures; right, uptake in cultures grown in glycerol and inducer (GlcNAc); note that expression was constitutive in BAP29. (B) Western blot analysis of HPr (top) and IIA^Crr (bottom), showing that inducibility of these PTS proteins is controlled by DasR. (C) Transcriptional analysis of crr (for IIA^Crr), nagE2 (for IIC^GlcNAc), malX2 (for IIB^GlcNAc), nagB and chiF by semi-quantitative RT-PCR. Samples were collected before and 15, 30 and 60 min after the addition of GlcNAc to exponentially growing minimal medium glycerol cultures. 16S rRNA was used as control.
Uptake assays with 20 μM N-[^14C]acetyl-D-glucosamine (6.2 mCi mmol^−1) into mycelia were performed as described (Nothaft et al., 2003).
Since many of the predicted DasR targets were involved in the fate of carbon sources (Table 2), we analyzed the effects of the dasR mutation on sugar import. […] This correlated to constitutive protein levels of the universal PTS phosphotransferases HPr and IIA^Crr (FIG. 8B), and was supported by RT-PCR of the respective genes (malX2, nagE2, crr-ptsI and ptsH; FIG. 8C) that encode the PTS permease complex (IIB^GlcNAc, IIC^GlcNAc, IIA^Crr, EI, HPr).

[2] = tested on: several streptomycetes (Bacillus subtilis as the indicator strain); test: Global antibiotic activity assay: streptomycetes on MM mannitol with or without GlcNAc, Bacillus subtilis overlay; format: cell-based, Streptomyces species; conditions: MM mannitol 0.5% with vs without GlcNAc 1%; for growth inhibition zones indicative of antibiotic production: B. subtilis indicator
Experimental: FIG. 23. Conservation of the GlcNAc-dependent antibiotic-inducing pathway amongst streptomycetes. Streptomycetes were grown on MM agar plates with 0.5% mannitol alone (left panel), or with added 1% GlcNAc (right panel), and an overlay was applied containing B. subtilis, allowing visualization of growth inhibition caused by antibiotic production. The tested streptomycetes were Streptomyces lividans 1326 (1326), Streptomyces hygroscopicus (hygro), Streptomyces collinus (colli), Streptomyces roseosporus (roseo), Streptomyces cinnamonensis (cinna), Streptomyces venezuelae (venez), Streptomyces clavuligerus (clavu), Streptomyces rimosus (rimos), Streptomyces griseus (grise), Streptomyces acrimycini (acrim), Streptomyces limosus (limos), and Streptomyces avermitilis (averm). See Materials and Methods section for exact nomenclature. The GlcNAc-triggering effect on antibiotic activity was most obvious for S. hygroscopicus, S. collinus, S. venezuelae, S. clavuligerus, S. rimosus, and S. griseus.
Samples (1 μl) of diluted spore suspensions were spotted on minimal medium plates containing 0.5% mannitol with or without 1% GlcNAc and incubated three days at 28° C. For the bioassay, we inoculated 10 ml of molten soft nutrient agar (SNA) with 500 μl of a Bacillus subtilis overnight culture (0D600˜1), and poured the mixture into square 12-cm-side Petri dishes. Plates were kept 2 h at 4° C. to solidify SNA and to allow diffusion of antibiotics produced, then incubated overnight at 30° C.
Is the GlcNAc-mediated control of antibiotic production a more widespread phenomenon in streptomycetes? To assess this, we evaluated the effect of GlcNAc on total antimicrobial activity (bactericidal and bacteristatic) of several streptomycetes, using Bacillus subtilis as the indicator strain. The tested strains were spotted on minimal medium containing mannitol (0.5%) with or without GlcNAc (1%). Excitingly, growth inhibition zones indicative of antibiotic production were much larger for Streptomyces clavuligerus (a producer of cephamycin), Streptomyces collinus (produces kirromycin), Streptomyces griseus (streptomycin producer), Streptomyces hygroscopicus (produces hygromycin), Streptomyces rimosus (produces oxytetracycline), and Streptomyces venezuelae (chloramphenicol, methymycin) (FIG. 23).

DasR = DasR (Streptomyces coelicolor, UniProt Q9K492); test: EMSA binding interference experiment: ability of compounds to interfere with binding of DasR to the nagB and crr promoters; conditions: for effect on formation of the complex of DasR with the nagB promoter (EMSA): 10 nM fluorescent probe, 3 μM purified DasR, 500-fold excess of non-specific DNA, 50, 100, 150, and 200 mM compound
Sequence of DasR (Q9K492 whole entry): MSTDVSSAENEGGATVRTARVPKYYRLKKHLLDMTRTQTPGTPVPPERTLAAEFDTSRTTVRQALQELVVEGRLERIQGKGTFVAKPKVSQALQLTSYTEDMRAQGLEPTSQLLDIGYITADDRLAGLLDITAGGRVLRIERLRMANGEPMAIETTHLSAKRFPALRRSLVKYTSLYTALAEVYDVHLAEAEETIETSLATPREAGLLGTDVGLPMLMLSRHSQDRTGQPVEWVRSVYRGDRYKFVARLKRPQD
Experimental: FIG. 12. […] EMSAs were performed with 10 nM fluorescent probe, 3 μM purified DasR, and 500-fold excess of non-specific DNA.
EMSAs were performed with fluorescent probes (10 nM) with an ALF express sequencer (Filee et al., 2001). Purified DasR (3 μM) and 1000-fold excess of non-specific DNA were used in the reaction mixture. Predicted cis-acting elements were taken from the promoter regions of actII-ORF4 (SCO5085; 5′-[…]-3′ (SEQ ID NO:530)), and redZ (SCO5881; 5′-[…]-3′ (SEQ ID NO:531)). Known cis-acting elements upstream of crr (SCO1390; […]-3′ (SEQ ID NO:532)), and crp (SCO3571; 5′-[…]-3′ (SEQ ID NO:533)) were used as positive and negative controls, respectively. The 16 nt dre sites are underlined.
A pivotal question is what is the effector molecule that modulates DasR? As shown in here, many of the targets for DasR relate to the generation (chitinolytic system), transport (PTS^GlcNAc), and metabolism (glycolysis via fructose 6-P) of N-acetylglucosamine. We therefore looked for the inducer among the intermediate molecules that gravitate around aminosugar metabolism. A binding interference experiment was set up where the ability of compounds to interfere with binding of dasR to the nagB and crr promoters was tested. […] The finding that glucosamine-6-P serves as an effector of DasR is explained by its central position at the metabolic crossroads between (GlcNAc)n extracellular degradation, N-acetylglucosamine transport and intracellular metabolism, lipid and nitrogen metabolism, glycolysis, and peptidoglycan synthesis (FIG. 13).

CC(=O)N[C@H]1C(O)O[C@H](CO)[C@@H](O)[C@@H]1O (stereo partly shown) [N-acetylglucosamine]
PTS-mediated uptake of GlcNAc [1]: induced | antibiotic activity against B. subtilis ([2]; Streptomyces acrimycini): did not seem to affect | antibiotic activity against B. subtilis ([2]; Streptomyces avermitilis): did not seem to affect | antibiotic activity against B. subtilis ([2]; Streptomyces cinnamonensis): did not seem to affect | growth inhibition zones indicative of antibiotic production ([2]; Streptomyces clavuligerus): most obvious; also recorded: much larger | growth inhibition zones indicative of antibiotic production ([2]; Streptomyces collinus): most obvious; also recorded: much larger | growth inhibition zones indicative of antibiotic production ([2]; Streptomyces griseus): most obvious; also recorded: much larger | growth inhibition zones indicative of antibiotic production ([2]; Streptomyces hygroscopicus): most obvious; also recorded: much larger | antibiotic activity against B. subtilis ([2]; Streptomyces limosus): did not seem to affect | antibiotic activity against B. subtilis ([2]; Streptomyces lividans): did not seem to affect | growth inhibition zones indicative of antibiotic production ([2]; Streptomyces rimosus): most obvious; also recorded: much larger | antibiotic activity against B. subtilis ([2]; Streptomyces roseosporus): repressing effect | growth inhibition zones indicative of antibiotic production ([2]; Streptomyces venezuelae): most obvious; also recorded: much larger | effect on formation of the complex of DasR with the nagB promoter (EMSA) (DasR): it was the only of the compounds tested that prevented the formation of a complex | effect on formation of the complex of DasR with the nagB promoter (EMSA) (DasR; listed as GlcNAc): no effect | effect on formation of the complex of DasR with the crr promoter region (EMSA) (DasR; crr promoter, data not shown): it was the only of the compounds tested that prevented the formation of a complex
